Laboratory results reported in ChEMBL document CHEMBL1128255, “Synthesis of 11 beta-[18F]fluoro-5 alpha-dihydrotestosterone and 11 beta-[18F]fluoro-19-nor-5 alpha-dihydrotestosterone: preparation via halofluorination-reduction, receptor binding, and tissue distribution” (J Med Chem, 1995).

Key:
[1] = %ID/g is percent injected dose per gram of tissue and in vivo distribution of compound obtained after 2 hour in prostate (v)/muscle; format: ADME, organism-based
[2] = %ID/g is percent injected dose per gram of tissue and in vivo distribution of compound obtained after 2 hour in fat; format: ADME, organism-based, Adipose tissue
[3] = %ID/g is percent injected dose per gram of tissue and in vivo distribution of compound obtained after 2 hour in prostate (d)/biood; format: ADME, organism-based, Prostate gland
[4] = %ID/g is percent injected dose per gram of tissue and in vivo distribution of compound obtained after 2 hour (low) in kidney; format: ADME, organism-based
[5] = %ID/g is percent injected dose per gram of tissue and in vivo distribution of compound obtained after 2 hour (blocked) in blood; format: ADME, organism-based
[6] = %ID/g is percent injected dose per gram of tissue and in vivo distribution of compound obtained after 2 hour in prostate (d)/muscle; format: ADME, organism-based
[7] = %ID/g is percent injected dose per gram of tissue and in vivo distribution of compound obtained after 2 hour in prostate (v); format: ADME, organism-based, Prostate gland
[8] = %ID/g is percent injected dose per gram of tissue and in vivo distribution of compound obtained after 1 hour in bladder; format: ADME, organism-based, Urinary bladder
[9] = %ID/g is percent injected dose per gram of tissue and in vivo distribution of compound obtained after 4 hour in prostate (v)/blood; format: ADME, organism-based; conditions: other tissue
[10] = physchem; conditions: octanol/water
Description: Partition coefficient (logP)

[11] = %ID/g is percent injected dose per gram of tissue and in vivo distribution of compound obtained after 2 hour (blocked) in kidney; format: ADME, organism-based
[12] = %ID/g is percent injected dose per gram of tissue and in vivo distribution of compound obtained after 2 hour (blocked) in prostate (v)/blood; format: ADME, organism-based; conditions: other tissue
[13] = %ID/g is percent injected dose per gram of tissue and in vivo distribution of compound obtained after 4 hour in fat; format: ADME, organism-based, Adipose tissue
[14] = %ID/g is percent injected dose per gram of tissue and in vivo distribution of compound obtained after 1 hour in prostate (v); format: ADME, organism-based, Prostate gland
[15] = %ID/g is percent injected dose per gram of tissue and in vivo distribution of compound obtained after 2 hour (blocked) in prostate (v); format: ADME, organism-based, Prostate gland
[16] = %ID/g is percent injected dose per gram of tissue and in vivo distribution of compound obtained after 2 hour (low) in fat; format: ADME, organism-based, Adipose tissue
[17] = target: T1, Androgen receptor (Rattus norvegicus) (UniProt P15207)
T1 sequence (whole entry): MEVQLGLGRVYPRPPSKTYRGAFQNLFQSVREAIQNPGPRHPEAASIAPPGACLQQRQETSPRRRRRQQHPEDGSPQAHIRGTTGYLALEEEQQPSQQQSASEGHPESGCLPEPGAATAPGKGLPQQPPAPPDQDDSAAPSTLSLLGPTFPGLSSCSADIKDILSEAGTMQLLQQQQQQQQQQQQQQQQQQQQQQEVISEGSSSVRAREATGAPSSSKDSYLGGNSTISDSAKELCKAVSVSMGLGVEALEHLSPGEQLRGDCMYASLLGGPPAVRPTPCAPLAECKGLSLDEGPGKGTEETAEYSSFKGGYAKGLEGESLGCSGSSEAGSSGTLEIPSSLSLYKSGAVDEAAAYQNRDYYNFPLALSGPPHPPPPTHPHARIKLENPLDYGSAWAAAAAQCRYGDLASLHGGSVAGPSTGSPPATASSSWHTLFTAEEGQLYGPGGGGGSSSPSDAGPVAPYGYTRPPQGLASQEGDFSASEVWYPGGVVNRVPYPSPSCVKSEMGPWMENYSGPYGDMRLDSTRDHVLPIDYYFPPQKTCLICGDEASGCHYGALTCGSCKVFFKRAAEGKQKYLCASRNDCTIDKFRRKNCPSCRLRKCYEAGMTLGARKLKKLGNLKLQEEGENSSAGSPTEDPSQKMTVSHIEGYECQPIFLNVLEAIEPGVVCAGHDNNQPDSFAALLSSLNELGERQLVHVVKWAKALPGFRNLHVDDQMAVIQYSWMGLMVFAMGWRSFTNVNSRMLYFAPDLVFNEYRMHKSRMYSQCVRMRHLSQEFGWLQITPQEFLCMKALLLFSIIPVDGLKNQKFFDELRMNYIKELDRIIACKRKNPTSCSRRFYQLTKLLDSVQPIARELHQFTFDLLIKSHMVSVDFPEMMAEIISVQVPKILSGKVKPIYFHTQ
Description: Binding selectivity index (BSI) as ratio of RBA for androgen receptor to non-specific binding of R1881

[18] = %ID/g is percent injected dose per gram of tissue and in vivo distribution of compound obtained after 2 hour (blocked) in liver; format: ADME, organism-based
[19] = %ID/g is percent injected dose per gram of tissue and in vivo distribution of compound obtained after 2 hour (blocked) in bone; format: ADME, organism-based, Bone element
[20] = %ID/g is percent injected dose per gram of tissue and in vivo distribution of compound obtained after 2 hour (low) in prostate (d)/biood; format: ADME, organism-based, Prostate gland
[21] = %ID/g is percent injected dose per gram of tissue and in vivo distribution of compound obtained after 2 hour (low) in prostate (d)/muscle; format: ADME, organism-based
[22] = %ID/g is percent injected dose per gram of tissue and in vivo distribution of compound obtained after 4 hour in prostate (v)/muscle; format: ADME, organism-based
[23] = %ID/g is percent injected dose per gram of tissue and in vivo distribution of compound obtained after 4 hour in prostate (d)/muscle; format: ADME, organism-based
[24] = %ID/g is percent injected dose per gram of tissue and in vivo distribution of compound obtained after 1 hour in bone; format: ADME, organism-based, Bone element
[25] = %ID/g is percent injected dose per gram of tissue and in vivo distribution of compound obtained after 4 hour in spleen; format: ADME, organism-based
[26] = %ID/g is percent injected dose per gram of tissue and in vivo distribution of compound obtained after 1 hour in prostate (d)/biood; format: ADME, organism-based, Prostate gland; conditions: other tissue
[27] = %ID/g is percent injected dose per gram of tissue and in vivo distribution of compound obtained after 2 hour in liver; format: ADME, organism-based

SMILES | ID/g [1] | ID/g [2] | ID/g [3] | ID/g [4] | ID/g [5] | ID/g [6] | ID/g [7] | ID/g [8] | ID/g [9] | logP [10] | ID/g [11] | ID/g [12] | ID/g [13] | ID/g [14] | ID/g [15] | ID/g [16] | BSI [17] | ID/g [18] | ID/g [19] | ID/g [20] | also measured
C[C@]12C[C@H](F)[C@H]3[C@@H](CC[C@H]4CC(=O)CC[C@@H]43)[C@@H]1CC[C@@H]2O | 3.404% | 0.041% | 2.95% | 0.251% | 0.061% | 3.882% | 0.12% | 3.331% | 2.036% | 3.1 | 0.301% | 0.88% | 0.022% | 0.284% | 0.054% | 0.041% | 91.8 | 1.189% | 0.065% | 3.126% | ID/g [21]: 3.83%; ID/g [22]: 2.919%; ID/g [23]: 3.98%; ID/g [24]: 0.068%; ID/g [25]: 0.029%; ID/g [26]: 2.531%; ID/g [27]: 0.992%
C[C@]12CCC(=O)C[C@@H]1CC[C@@H]1[C@@H]2[C@@H](F)C[C@]2(C)[C@@H](O)CC[C@@H]12 | 9.022% | 0.024% | 10.642% | 0.145% | 0.048% | 10.141% | 0.317% | 1.245% | 12.249% | 3.5 | 0.2% | 1.357% | 0.012% | 0.486% | 0.069% | 0.02% | 42.8 | 0.468% | 0.061% | 11.358% | ID/g [21]: 9.78%; ID/g [22]: 19.715%; ID/g [23]: 17.573%; ID/g [24]: 0.064%; ID/g [25]: 0.02%; ID/g [26]: 5.16%; ID/g [27]: 0.451%
